From patent US8722578B2, “Spiroheterocyclic pyrrolidinedione herbicidal compositions” (Syngenta Participations AG, priority 2008, dated 2014)

Columns and labels:
[1] = system: Alopecurus myosuroides (ALOMY); assay: Example B post-emergence herbicidal activity, glasshouse pot test; type: in vivo; details: 312 h, evaluated after 13 days, read-out: ALOMY post-emergence activity (100=total damage to plant; 0=no damage to plant); for pest or weed control at 250 g/ha: rate 250 g/ha; for pest or weed control at 1000 g/ha: rate 1000 g/ha
Protocol: (§1) Seeds of a variety of test species are sown in standard soil in pots. After cultivation for one day (pre-emergence) or after 8 days cultivation (post-emergence) under controlled conditions in a glasshouse (at 24/16° C., day/night; 14 hours light; 65% humidity), the plants are sprayed with an aqueous spray solution derived from the formulation of the technical active ingredient in acetone/water (50:50) solution containing 0.5% Tween 20 (polyoxyethelyene sorbitan monolaurate, CAS RN 9005-64-5). The test plants are then grown in a glasshouse under controlled conditions in a glasshouse (at 24/16° C., day/night; 14 hours light; 65% humidity) and watered twice daily. After 13 days for pre and post-emergence, the test is evaluated (100=total damage to plant; 0=no damage to plant). Test Plants: Setaria faberi (SETFA), Alopecurus myosuroides (ALOMY), Echinochloa crus-galli (ECHCG), Avena fatua (AVEFA)

Avena fatua (AVEFA) [2] = assay: as above; type: in vivo; details: 312 h, evaluated after 13 days, read-out: AVEFA post-emergence activity (100=total damage to plant; 0=no damage to plant); for pest or weed control at 250 g/ha: rate 250 g/ha; for pest or weed control at 1000 g/ha: rate 1000 g/ha
Protocol: as §1

[3] = system: Echinochloa crus-galli (ECHCG); assay: as above; type: in vivo; details: 312 h, evaluated after 13 days, read-out: ECHCG post-emergence activity (100=total damage to plant; 0=no damage to plant); for pest or weed control at 250 g/ha: rate 250 g/ha; for pest or weed control at 1000 g/ha: rate 1000 g/ha
Protocol: as §1

Setaria faberi (SETFA) [4] = assay: as above; type: in vivo; details: 312 h, evaluated after 13 days, read-out: SETFA post-emergence activity (100=total damage to plant; 0=no damage to plant); for pest or weed control at 250 g/ha: rate 250 g/ha; for pest or weed control at 1000 g/ha: rate 1000 g/ha
Protocol: as §1

[5] = system: Alopecurus myosuroides (ALOMY); assay: Example B pre-emergence herbicidal activity, glasshouse pot test; type: in vivo; details: 312 h, first table (headed Post-Emergence, taken as pre-emergence), evaluated after 13 days, read-out: ALOMY activity (100=total damage to plant; 0=no damage to plant); for pest or weed control at 1000 g/ha: rate 1000 g/ha
Protocol: as §1

Avena fatua (AVEFA) [6] = assay: as above; type: in vivo; details: 312 h, first table (headed Post-Emergence, taken as pre-emergence), evaluated after 13 days, read-out: AVEFA activity (100=total damage to plant; 0=no damage to plant); for pest or weed control at 1000 g/ha: rate 1000 g/ha
Protocol: as §1

[7] = system: Echinochloa crus-galli (ECHCG); assay: as above; type: in vivo; details: 312 h, first table (headed Post-Emergence, taken as pre-emergence), evaluated after 13 days, read-out: ECHCG activity (100=total damage to plant; 0=no damage to plant); for pest or weed control at 1000 g/ha: rate 1000 g/ha
Protocol: as §1

Setaria faberi (SETFA) [8] = assay: as above; type: in vivo; details: 312 h, first table (headed Post-Emergence, taken as pre-emergence), evaluated after 13 days, read-out: SETFA activity (100=total damage to plant; 0=no damage to plant); for pest or weed control at 1000 g/ha: rate 1000 g/ha
Protocol: as §1

Structure (SMILES)	pest or weed control at 250 g/ha [1]	pest or weed control at 250 g/ha (Avena fatua (AVEFA) [2])	pest or weed control at 250 g/ha [3]	pest or weed control at 250 g/ha (Setaria faberi (SETFA) [4])	melting point	pest or weed control at 1000 g/ha [5]	pest or weed control at 1000 g/ha (Avena fatua (AVEFA) [6])	pest or weed control at 1000 g/ha [7]	pest or weed control at 1000 g/ha (Setaria faberi (SETFA) [8])	pest or weed control at 1000 g/ha [1]	pest or weed control at 1000 g/ha (Avena fatua (AVEFA) [2])	pest or weed control at 1000 g/ha [3]	pest or weed control at 1000 g/ha (Setaria faberi (SETFA) [4])	pest or weed control at 250 g/ha ([5]; rate 250 g/ha)	pest or weed control at 250 g/ha (Avena fatua (AVEFA) [6]; rate 250 g/ha)	pest or weed control at 250 g/ha ([7]; rate 250 g/ha)	pest or weed control at 250 g/ha (Setaria faberi (SETFA) [8]; rate 250 g/ha)
CON1CCC2(CC1)NC(=O)C(c1c(C)cc(-c3ccc(Cl)cc3)cc1C)=C2OC(=O)C(C)(C)C [Compound P71]	0%	20%	30%	60%	> 250 °C												
CON1CCC2(CC1)NC(=O)C(c1ccc(Br)cc1Cl)C2=O (stereo not shown) [Compound T21]	80%	60%	90%	80%	167 to 169 °C												
C=CCOC(=O)OC1=C(c2c(Cl)cccc2Cl)C(=O)NC12CCN(OC)CC2 [Compound P44]					203 to 205 °C	20%	10%	30%	30%	50%	0%	0%	50%				
CON1CCC2(CC1)NC(=O)C(c1cc(-c3ccc(Cl)cc3)c(C)cc1C)C2=O (stereo not shown) [Compound T15]	60%	60%	90%	90%	168 to 169 °C												
CCOC(=O)OC1=C(c2cc(C3CC3)c(C)cc2C)C(=O)NC12CCN(OC)CC2 [Compound P55]	60%	60%	70%	80%	174 to 176 °C									10%	0%	40%	60%
CCON1CCC2(CC1)NC(=O)C(c1c(C)cc(C)cc1C)=C2OC(=O)C(C)(C)C [Compound P25, 2,2-dimethyl-propionic acid 8-ethoxy-2-oxo-3-(2,4,6-trimethyl-phenyl)-1,8-diaza-spiro[4.5]dec-3-en-4-yl ester]						60%	0%	80%	60%	50%	0%	40%	0%				
CCOC(=O)OC1=C(c2c(C)cc(C)cc2C)C(=O)NC12CCN(OCC)CC2 [Compound P22]					174 to 175 °C	90%	90%	100%	90%	90%	60%	100%	70%				
CON1CCC2(CC1)NC(=O)C(c1cc(C)ccc1C)=C2OC(=O)C(C)C [Compound P34]					201 to 203 °C	30%	40%	20%	20%	10%	0%	40%	60%				
CCOC(=O)OC1=C(c2ccc(Br)cc2C)C(=O)NC12CCN(OC)CC2 [Compound P68]	70%	60%	90%	90%	201 to 203 °C												
